Common to all, as to assay: NCI tumour cell line growth inhibition, 48 h
Assay [1] deals with SN12C.
The subject of assay [2] is SK-MEL-28.
For assay [3], the system named is SW-620.
Assay [4] concerns OVCAR-5.
For assay [5], the system named is UO-31.
Assay [6] has as its system CCRF-CEM.
The subject of assay [7] is MCF7.
The subject of assay [8] is MOLT-4.
The test system of assay [9] is HOP-92.
Assay [10] concerns OVCAR-8.
The subject of assay [11] is MDA-N.
In assay [12] the test system is T47D.
Assay [13] concerns NCI-H522.
Assay [14] deals with UACC-62.
Assay [15] deals with HT-29.
Assay [16] concerns U-251.
In assay [17] the test system is HCT-116.
Assay [18] concerns A498.
For assay [19], the system named is NCI-H460.

SMILES strings stand for the structures.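 A five-concentration, 48-hour dose response in 96-well plates underlies each endpoint, interpolated linearly between surrounding concentrations. Abbreviation: GI50, concentration required for 50% inhibition of growth.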 Active and inactive are the calls of the source. Cut-off read from the data, not from the text of the source: active = GI50 up to about 1.1 µM and inactive = higher.

On to `CCOC(=O)C(NC(=O)c1ccccc1)(Nc1cc(C)on1)C(F)(F)F` (centres undefined), for which the GI50 in assay [1], in [2], in assay [3], in [4], in assay [5] and in assay [6] was > 100 µM (inactive) each time. The GI50 in assay [7], in assay [8], in assay [9], in [10], in assay [11] and in [12] was > 100 µM (inactive) each time. Also, the GI50 in assay [13], in [14], in assay [15], in assay [16] and in [17] was > 100 µM (inactive) each time.
Consider `O=c1[nH]nc(Cc2ccccc2)n1Nc1ccccc1`, for which the GI50 in assay [18], in [1], in assay [2], in assay [3], in assay [4] and in assay [5] was > 100 µM (inactive) throughout. Also, the GI50 in assay [19], in assay [6], in [7], in [8], in assay [10] and in assay [11] was > 100 µM (inactive) each time. In addition, the GI50 in assay [12] was > 10 µM (inactive); in [13], > 100 µM (inactive); in assay [14] it was > 100 µM (inactive); in assay [15], > 100 µM (inactive); in assay [16], > 100 µM (inactive); in [17] it was > 100 µM (inactive).
As to `Clc1ccc(Cl)c(NNc2cc(Cl)ccc2Cl)c1`, the GI50 in [18] was > 10 µM (inactive); in [1] it was 4.07 µM (inactive); in assay [2], 6.38 µM (inactive); in [3] it was > 10 µM (inactive); in assay [4], > 10 µM (inactive); in [19], 3.66 µM (inactive). Besides, the GI50 was 3.63 µM (inactive) in assay [6]; 7.74 µM (inactive) in assay [7]; > 10 µM (inactive) in assay [8]; 7.64 µM (inactive) in [10]; 5.57 µM (inactive) in assay [11]; 4.28 µM (inactive) in [12]. The GI50 is 3.68 µM (inactive) in [13]; 3.88 µM (inactive) in [14]; > 10 µM (inactive) in [15]; 7.59 µM (inactive) in assay [16]; 3.84 µM (inactive) in assay [17].
With `Cc1[nH]c2ncn3nc(C(Cl)(Cl)Cl)nc3c2c1Cc1ccccc1`, the GI50 in [18] was > 100 µM (inactive); in [1], > 100 µM (inactive); in assay [2] it was > 100 µM (inactive); in [3] it was > 100 µM (inactive); in assay [4], > 100 µM (inactive); in assay [5], 10.5 µM (inactive). Moreover, the GI50 in assay [19], in assay [6], in assay [7], in assay [8], in [10] and in [11] was > 100 µM (inactive) in each case. Besides, the GI50 in assay [12], in assay [13], in [14], in assay [15], in [16] and in assay [17] was > 100 µM (inactive) in each case.
As to `COc1ccc(C(=O)C#Cc2cn(C3CC(O)C(CO)O3)c(=O)[nH]c2=O)cc1` (centres undefined), the GI50 in assay [1] is 28.7 µM (inactive); in assay [2], 20.4 µM (inactive); in assay [3] it was 43.1 µM (inactive); in [5], > 100 µM (inactive); in [19] it was > 100 µM (inactive); in assay [6], > 10 µM (inactive). For the same compound, the GI50 was 35.5 µM (inactive) in assay [7]; 39.4 µM (inactive) in assay [8]; 21.7 µM (inactive) in assay [9]; > 100 µM (inactive) in [10]; 60.3 µM (inactive) in assay [11]; 19.2 µM (inactive) in assay [12]. The GI50 in [13] was 11.9 µM (inactive); in assay [14], 55.5 µM (inactive); in assay [15], > 100 µM (inactive); in assay [16] it was > 100 µM (inactive); in assay [17] it was 39.7 µM (inactive).
Regarding `CC(=O)OCC1OC(c2c(OC(C)=O)cc(C)c3c(=O)cc(/C(C(C)=O)=C(\C)O)oc23)C(OC(C)=O)C(OC(C)=O)C1OC(C)=O` (centres undefined), the GI50 in assay [1], in [2], in [3], in [4], in assay [5] and in [19] was > 100 µM (inactive) each time. The GI50 in assay [6], in [7], in [8], in assay [9], in [10] and in [11] was > 100 µM (inactive) each time. The GI50 in assay [12], in assay [13], in [14], in assay [15], in assay [16] and in [17] was > 100 µM (inactive) each time.
Regarding `S=C1CC(c2ccccc2)Sc2ccccc2N1` (centres undefined), the GI50 was 97.7 µM (inactive) in [1]; 51.4 µM (inactive) in assay [2]; 76.6 µM (inactive) in assay [4]; > 100 µM (inactive) in assay [5]; 63.1 µM (inactive) in assay [19]; > 100 µM (inactive) in [6]. Also, the GI50 in assay [7] was 44.4 µM (inactive); in assay [8], 5.22 µM (inactive); in assay [10], > 100 µM (inactive); in assay [11], 54 µM (inactive); in assay [12], > 100 µM (inactive); in assay [13] it was 31.3 µM (inactive). In addition, the GI50 is 51.1 µM (inactive) in assay [14], > 100 µM (inactive) in [15], 44.2 µM (inactive) in assay [16] and 37 µM (inactive) in assay [17].
As for `C/C=C/C(O)P1(=O)N(Cc2ccccc2)[C@@H]2CCCC[C@H]2N1Cc1ccccc1` (some centres undefined), the GI50 in assay [1], in assay [2], in assay [3], in assay [4], in assay [5] and in assay [19] was > 25 µM (inactive) each time. The GI50 was > 25 µM (inactive) in [6]; > 25 µM (inactive) in assay [7]; 19.9 µM (inactive) in assay [8]; > 25 µM (inactive) in assay [10]; > 25 µM (inactive) in assay [11]; > 25 µM (inactive) in assay [12]. The GI50 in assay [13], in assay [14], in assay [15], in assay [16] and in assay [17] was > 25 µM (inactive) throughout.
On to `CC1(C)CN=C(Nc2cccc(C(F)(F)F)c2)S1`, for which the GI50 in assay [1], in assay [2], in assay [3], in [4], in [5] and in assay [6] was > 100 µM (inactive) each time. In addition, the GI50 in assay [7], in assay [8], in assay [9], in assay [10], in assay [11] and in assay [12] was > 100 µM (inactive) throughout. In addition, the GI50 in [13], in [14], in [15], in assay [16] and in [17] was > 100 µM (inactive) in each case.
For `O=C(NCCN1C(=O)CN=C(c2ccc(Cl)cc2)c2cc(Cl)ccc21)OCc1ccccc1`, the GI50 was 11.2 µM (inactive) in assay [18]; 14.3 µM (inactive) in [1]; 33.7 µM (inactive) in assay [2]; 13.6 µM (inactive) in assay [3]; 19.2 µM (inactive) in assay [4]; 10.9 µM (inactive) in assay [5]. In addition, the GI50 was 13.4 µM (inactive) in assay [19]; 11.7 µM (inactive) in assay [6]; 0.255 µM (active) in assay [8]; 14.7 µM (inactive) in assay [9]; 16.3 µM (inactive) in assay [10]; 16.5 µM (inactive) in assay [11]. Moreover, the GI50 in assay [12] was 30.8 µM (inactive); in assay [13], 15.5 µM (inactive); in assay [14], 14.8 µM (inactive); in assay [15], 11.8 µM (inactive); in assay [16], 15.2 µM (inactive); in assay [17], 11.9 µM (inactive).
Regarding `CN(C)CCOc1ccc2[nH]c(C(=O)N3CC(CCl)c4c3cc([N+](=O)[O-])c3ccccc43)cc2c1` (centres undefined), the GI50 in assay [18] was 2.94 µM (inactive); in assay [2], 1.72 µM (inactive); in [3] it was 2.17 µM (inactive); in assay [4], 2.32 µM (inactive); in assay [5] it was 15.1 µM (inactive); in assay [19], 1.77 µM (inactive). Also, the GI50 in [6] was 1.58 µM (inactive); in assay [7], 1.76 µM (inactive); in [8], 1.29 µM (inactive); in [10], 1.6 µM (inactive); in assay [11], 3.68 µM (inactive); in assay [12], 1.89 µM (inactive). Besides, the GI50 in [14] was 2.21 µM (inactive); in assay [15], 2.15 µM (inactive); in assay [16] it was 2.06 µM (inactive); in assay [17], 1.67 µM (inactive).
